In patent US11518764B2, “Substituted heteroaryls as inhibitors of the BCL6 BTB domain protein-protein interaction” (Ontario Institute for Cancer Research (OICR), priority 2018, dated 2022):
Where two headings read alike, the source gives them in different places.

Experiments:
[1] = tested on: BCL6 reporter construct (3xBCL6-TK-Luc) in SuDHL4 cells; assay: Cell-based luciferase assay
Experimental: Cell-Based Luciferase Assay
A BCL6 reporter construct containing three copies of the consensus BCL6 binding site, the TK promoter, and the firefly luciferase gene was stably expressed in SuDHL4 cells after lentivirus infection and selection with Blasticidin. SuDHL4-3×BCL6-TK-Luc cells were seeded into a Viewplate 384-well assay dish at 15,000 cells/well in 25 ul medium (Alpha-MEM high glucose containing 10% FBS, 25 mM HEPES, […] GlutaMAX, 100 ug/ml Normocin, and […] Gentamycin, Invitrogen). A HP D300 digital dispenser was used to dose cells with DMSO or test compounds across a 10-point range of concentrations (high dose of 10 uM), and cultures were grown in a humidified 5% CO2 incubator at 37° C. After two days, plates were removed from the incubator and equilibrated to room temperature. An equal volume of neolite reporter gene assay reagent was added to each well, and samples were processed according to manufacturer's instructions (Perkin Elmer). Luminescent signal was measured using an Envision plate reader equipped with a US-Luminescence detector.

[2] = tested on: Karpas422 cells; assay: Tumor cell growth inhibition assay; assay type: cell-based
Experimental: Tumor Cell Growth inhibition Assay
Karpas422 cells were seeded into a 96-well plate at 2,000 cells/well in 150 ul medium (Alpha-MEM containing 10% FBS, […] Normocin, and […] Gentamycin, Invitrogen). A HP D300 digital dispenser was used to dose cells with DMSO or test compounds across a 10-point range of concentrations (high dose of 5 uM), and cultures were grown in a humidified 5% CO2 incubator at 37° C. After six days, plates were removed from incubator and equilibrated to room temperature. An equal volume of ATPlite assay reagent was added to each well, and samples were processed according to manufacturer's instructions (Perkin Elmer). Luminescent signal was measured using an Envision plate reader equipped with a US-Luminescence detector.

[3] = target: BCL6 BTB domain (Homo sapiens (Human), UniProt P41182); assay: Surface plasmon resonance (SPR) assay; assay type: binding; conditions: BCL6 BTB domain captured on SA chip, single cycle kinetics
[4] = Homo sapiens, SU-DHL-4, 48 h, read-out: Luciferase-Assay EC50, uM), SuDHL4-3xBCL6-TK-Luc cells, two days, high dose 10 uM
[5] = Homo sapiens, KARPAS-422, 144 h, read-out: Tumor Growth Inhibition in Karpas-422 (IC50, uM), Karpas422 cells, six days, ATPlite

SMILES | EC50 [1, 4] | IC50 [2, 5] | Kd [3] | EC50 ([1]; SuDHL4-3xBCL6-TK-Luc cells, two days, high dose 10 uM, read-out: Luciferase-Assay EC50) | IC50 ([2]; Karpas422 cells, six days, ATPlite, read-out: Tumor Growth Inhibition in Karpas-422 (IC50))
Cn1cnc2c(c(-c3cc(Cl)c(O)c(C(N)=O)c3)cn2CC(=O)Nc2cc(N3CCC4(CCOCC4)CC3)ncc2Cl)c1=O [Compound I-77] | 0.279 µM | 0.115 µM | 27 nM | – | –
C[C@H]1COCCN1c1cc(NC(=O)Cn2cc(-c3cc(Cl)c(O)c(C(N)=O)c3)c3c(=O)n(CC#Cc4cnn(C)c4)cnc32)c(Cl)cn1 [Compound I-82] | 0.133 µM | 0.034 µM | 6 nM | – | –
CC1OCCN(c2cc(NC(=O)Cn3cc(-c4cc(Cl)c(O)c(C(N)=O)c4)c4c(=O)n(C)cnc43)c(Cl)cn2)C1C (stereo not drawn) [Compound I-83] | 0.148 µM | 0.119 µM | 16 nM | – | –
Cc1nc2c(c(-c3cc(Cl)c(O)c(C(N)=O)c3)cn2CC(=O)Nc2cc(N3C[C@@H](C)O[C@@H](C)C3)ncc2Cl)c(=O)[nH]1 [Compound I-85] | 0.076 µM | 0.064 µM | 11 nM | – | –
Cc1nc2c(s1)CN(c1cc(NC(=O)Cn3cc(-c4cc(Cl)c(O)c(C(N)=O)c4)c4c(=O)n(C)cnc43)c(Cl)cn1)C2 [Compound I-108] | 0.203 µM | 0.408 µM | 30 nM | – | –
Cc1c(O)c(C(N)=O)cc(-c2cn(CC(=O)Nc3cc(N4CCOCC4)ncc3Cl)c3ncn(C)c(=O)c23)c1F [Compound I-118] | > 10 µM | 2.45 µM | 2000 nM | – | –
Cc1c(O)c(C(N)=O)cc(-c2cn(CC(=O)Nc3cc(N4C[C@@H](C)O[C@@H](C)C4)ncc3Cl)c3ncn(C)c(=O)c23)c1F [Compound I-119] | > 10 µM | > 10 µM | 4000 nM | – | –
COc1cc(-c2cn(CC(=O)Nc3cc(N4CCOC[C@@H]4C)ncc3Cl)c3nc(C)n(C)c(=O)c23)cc(C(N)=O)c1O [Compound I-122] | 0.119 µM | 0.078 µM | 6 nM | – | –
COc1cc(-c2cn(CC(=O)Nc3cc(N4CCOCC4)ncc3Cl)c3nc(C)n(C)c(=O)c23)cc(C(N)=O)c1O [Compound I-123] | 0.095 µM | 0.216 µM | 7 nM | – | –
Cn1c(NCC2CC2)nc2c(c(-c3cc(Cl)c(O)c(C(N)=O)c3)cn2CC(=O)Nc2cc(N3CCOCC3)ncc2Cl)c1=O [Compound I-124] | 0.371 µM | 0.434 µM | 86 nM | – | –
Cn1cnc2c(c(-c3cc(Cl)c(O)c(C(N)=O)c3)cn2CC(=O)Nc2cc(N3C4CCC3CC4)ncc2Cl)c1=O [Compound I-125] | 3.76 µM | 0.407 µM | 30 nM | – | –
Cn1cnc2c(c(-c3cc(Cl)c(O)c(C(N)=O)c3)cn2CC(=O)Nc2cc(N3CC4CCC3C4)ncc2Cl)c1=O (stereo not drawn) [Compound I-126] | 2.85 µM | 0.268 µM | 39 nM | – | –
Cn1c(CCc2ccc(F)cc2)nc2c(c(-c3cc(Cl)c(O)c(C(N)=O)c3)cn2CC(=O)Nc2cc(N3CCOCC3)ncc2Cl)c1=O [Compound I-127] | 0.756 µM | 0.276 µM | 201 nM | – | –
Cc1nc2c(c(-c3cc(Cl)c(O)c(C(N)=O)c3)cn2CC(=O)Nc2cc(N3CCN(C)C[C@@H]3C)ncc2Cl)c(=O)[nH]1 [Compound I-128] | 0.173 µM | 0.074 µM | 12 nM | – | –
CN(C)c1cc(NC(=O)Cn2cc(-c3cc(Cl)c(O)c(C(N)=O)c3)c3c(=O)n(C)c(NCc4ccc(F)cc4)nc32)c(Cl)cn1 [Compound I-129] | 2.62 µM | 0.866 µM | 44 nM | – | –
CN(C)c1cc(NC(=O)Cn2cc(-c3cc(Cl)c(O)c(C(N)=O)c3)c3c(=O)n(C)c(NCC4CC4)nc32)c(Cl)cn1 [Compound I-130] | 1.03 µM | 0.775 µM | 80 nM | – | –

SMILES | EC50 [1, 4] | IC50 [2, 5] | Kd [3] | EC50 ([1]; SuDHL4-3xBCL6-TK-Luc cells, two days, high dose 10 uM, read-out: Luciferase-Assay EC50) | IC50 ([2]; Karpas422 cells, six days, ATPlite, read-out: Tumor Growth Inhibition in Karpas-422 (IC50))
Cn1cnc2c(c(-c3cc(C(N)=O)c(O)cn3)cn2CC(=O)Nc2cc(N3CCOCC3)ncc2Cl)c1=O [Compound I-131, 2-(7-(2-((5-chloro-2-morpholinopyridin-4-yl)amino)-2-oxoethyl)-3-methyl-4-oxo-4,7-dihydro-3H-pyrrolo[2,3-d]pyrimidin-5-yl)-5-hydroxyisonicotinamide] | – | – | 8000 nM | > 10 µM | > 10 µM
CN1CCOC2(CCN(c3cc(NC(=O)Cn4cc(-c5cc(Cl)c(O)c(C(N)=O)c5)c5c(=O)n(C)cnc54)c(Cl)cn3)C2)C1 (stereo not drawn) [Compound I-132] | 0.192 µM | 0.067 µM | 10 nM | – | –
CN1CCC2(C1)CN(c1cc(NC(=O)Cn3cc(-c4cc(Cl)c(O)c(C(N)=O)c4)c4c(=O)n(C)cnc43)c(Cl)cn1)CCO2 (stereo not drawn) [Compound I-133] | 0.137 µM | 0.199 µM | 30 nM | – | –
Cn1c(NCCC(F)(F)F)nc2c(c(-c3cc(Cl)c(O)c(C(N)=O)c3)cn2CC(=O)Nc2cc(N3CCOCC3)ncc2Cl)c1=O [Compound I-134] | 0.477 µM | 0.57 µM | 97 nM | – | –
C[C@@H]1CCCN1c1cc(NC(=O)Cn2cc(-c3cc(Cl)c(O)c(C(N)=O)c3)c3c(=O)n(C)cnc32)c(Cl)cn1 [Compound I-135] | 3.01 µM | 1.43 µM | 69 nM | – | –
C[C@H]1CCCN1c1cc(NC(=O)Cn2cc(-c3cc(Cl)c(O)c(C(N)=O)c3)c3c(=O)n(C)cnc32)c(Cl)cn1 [Compound I-136] | 0.578 µM | 0.96 µM | 55 nM | – | –
C[C@H]1COCCN1c1cc(NC(=O)Cn2cc(-c3cc(F)c(O)c(C(N)=O)c3)c3c(=O)n(C)ccc32)c(Cl)cn1 [Compound I-137] | 1.34 µM | 1.74 µM | 66 nM | – | –
C[C@H]1COCCN1c1cc(NC(=O)Cn2cc(-c3cc(Cl)c(O)c(C(N)=O)c3)c3c(=O)n(C)ccc32)c(Cl)cn1 [Compound I-138] | 1.74 µM | 1.72 µM | 178 nM | – | –
Cc1cc(-c2cn(CC(=O)Nc3cc(N4CCOC[C@@H]4C)ncc3Cl)c3ccn(C)c(=O)c23)cc(C(N)=O)c1O [Compound I-139] | 8.35 µM | > 10 µM | 3270 nM | – | –
Cn1ccc2c(c(-c3cc(F)c(O)c(C(N)=O)c3)cn2CC(=O)Nc2cc(N3CCOCC3)ncc2Cl)c1=O [Compound I-140] | 1.33 µM | 1.28 µM | 317 nM | – | –
Cn1ccc2c(c(-c3cc(Cl)c(O)c(C(N)=O)c3)cn2CC(=O)Nc2cc(N3CCOCC3)ncc2Cl)c1=O [Compound I-141] | 1.83 µM | 1.02 µM | 265 nM | – | –
Cc1cc(-c2cn(CC(=O)Nc3cc(N4CCOCC4)ncc3Cl)c3ccn(C)c(=O)c23)cc(C(N)=O)c1O [Compound I-142] | 4.02 µM | > 10 µM | 2200 nM | – | –
C[C@H]1COCCN1c1cc(NC(=O)Cn2cc(-c3cc(Cl)c(O)c(C(N)=O)c3)c3c(=O)[nH]cnc32)c(Cl)cn1 [Compound I-145] | 0.303 µM | 0.551 µM | 6.09 nM | – | –
CN1C(C)(C)CN(c2cc(NC(=O)Cn3cc(-c4cc(Cl)c(O)c(C(N)=O)c4)c4c(=O)n(C)cnc43)c(Cl)cn2)CC1(C)C [Compound I-146] | 0.182 µM | 0.121 µM | 18.4 nM | – | –
Cn1cnc2c(c(-c3cc(Cl)c(O)c(C(N)=O)c3)cn2CC(=O)Nc2cc(N3CCOC(C)(C)C3)ncc2Cl)c1=O [Compound I-147] | 0.144 µM | 0.0995 µM | 19.6 nM | – | –
CN(C1CCC(c2cc(NC(=O)Cn3cc(-c4cc(Cl)c(O)c(C(N)=O)c4)c4c(=O)n(C)cnc43)c(Cl)cn2)C1)S(C)(=O)=O (stereo not drawn) [Compound I-148] | 1.31 µM | 0.541 µM | 20.9 nM | – | –
